# Test results from patent US20230312542A1, “HYDROXYPYRROLIDINE DERIVATIVE AND MEDICINAL APPLICATION THEREOF” (MITSUBISHI TANABE PHARMA CORPORATION, priority 2020, published 2023).
# Biological target: VHL (co-expressed with Elongin B and Elongin C) (Homo sapiens (Human), UniProt P40337)
# Experiment: Measurement of intermolecular interactions using surface plasmon resonance (Biacore T200), Kd value for VHL
# Type: binding
# Details: SPR, immobilized VHL, 25° C.; read-out: Kd
# Text: As the device, Biacore T200 (manufactured by GE Healthcare) was used. VHL was obtained by co-expressing Elongin B and Elongin C with a Twin-Strep-tag added to the N-terminus. As the sensor chip, Sensor chip CM5 (manufactured by GE Healthcare) was used. First, Strep-Tactin XT (manufactured by GE Healthcare) was immobilized on the sensor chip by amine coupling. Thereafter, VHL was immobilized using the affinity of Strep-Tactin XT and Twin-Strep-tag, and VHL was further immobilized on the sensor chip by amine coupling.
# As the running buffer, a mixed solution of 20 mM HEPES pH 7.5, 150 mM NaCl, 1 mM TCEP, 0.005% Tween 20, and 2% DMSO was used. […] The Contact time and the Dissociation time were determined according to the properties of the compounds. For many compounds, 60 seconds and 120 seconds were respectively used.
# Chain of VHL (co-expressed with Elongin B and Elongin C) (P40337 whole entry, looked up): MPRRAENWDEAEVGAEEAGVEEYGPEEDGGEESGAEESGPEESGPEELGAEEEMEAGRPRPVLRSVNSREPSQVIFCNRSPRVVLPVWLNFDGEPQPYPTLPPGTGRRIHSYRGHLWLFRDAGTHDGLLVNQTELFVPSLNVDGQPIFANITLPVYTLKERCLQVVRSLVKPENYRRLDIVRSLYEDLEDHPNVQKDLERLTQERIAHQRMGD
# Chain of VHL (co-expressed with Elongin B and Elongin C) (Q15370 whole entry partner, looked up): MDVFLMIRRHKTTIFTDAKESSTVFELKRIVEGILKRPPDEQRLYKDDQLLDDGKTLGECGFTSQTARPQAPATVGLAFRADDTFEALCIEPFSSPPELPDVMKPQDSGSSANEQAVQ
# Chain of VHL (co-expressed with Elongin B and Elongin C) (Q15369 whole entry partner, looked up): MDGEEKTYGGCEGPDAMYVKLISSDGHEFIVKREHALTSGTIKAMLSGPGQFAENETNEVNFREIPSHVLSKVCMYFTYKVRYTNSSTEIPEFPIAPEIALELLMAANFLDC
structure (smiles),measurement,value
"COc1ccc(Cc2cnc([C@@H]3C[C@@H](O)CN3C(=O)C(c3cc(OC)no3)C(C)C)[nH]2)cc1 (stereo partly drawn) [Example 62, 1-[(2S,4R)-4-hydroxy-2-[5-[(4-methoxyphenyl)methyl]-1H-imidazol-2-yl]pyrrolidin-1-yl]-2-(3-methoxy-1,2-oxazol-5-yl)-3-methylbutan-1-one]",Kd,1 to 10 µM
"COc1cccc(Cc2cnc([C@@H]3C[C@@H](O)CN3C(=O)C(c3cc(OC)no3)C(C)C)[nH]2)c1 (stereo partly drawn) [Example 63, 1-[(2S,4R)-4-hydroxy-2-[5-[(3-methoxyphenyl)methyl]-1H-imidazol-2-yl]pyrrolidin-1-yl]-2-(3-methoxy-1,2-oxazol-5-yl)-3-methylbutan-1-one]",Kd,1 to 10 µM
"CNC(=O)c1ccccc1-c1cnc([C@@H]2C[C@@H](O)CN2C(=O)C(c2cc(OC)no2)C(C)C)[nH]1 (stereo partly drawn) [Example 64, 2-[2-[(2S,4R)-4-hydroxy-1-[2-(3-methoxy-1,2-oxazol-5-yl)-3-methylbutanoyl]pyrrolidin-2-yl]-1H-imidazol-5-yl]-N-methylbenzamide]",Kd,1 to 10 µM
"COc1cc(C(C(=O)N2C[C@H](O)C[C@H]2c2nccn2Cc2cccc(Oc3ccccc3)c2)C(C)C)on1 (stereo partly drawn) [Example 65, 1-[(2S,4R)-4-hydroxy-2-[1-[(3-phenoxyphenyl)methyl]imidazol-2-yl]pyrrolidin-1-yl]-2-(3-methoxy-1,2-oxazol-5-yl)-3-methylbutan-1-one]",Kd,10 to 50 µM
"COc1cc(C(C(=O)N2C[C@H](O)C[C@H]2c2nccn2Cc2ccccc2OCc2ccccc2)C(C)C)on1 (stereo partly drawn) [Example 66, 1-[(2S,4R)-4-hydroxy-2-[1-[(2-phenylmethoxyphenyl)methyl]imidazol-2-yl]pyrrolidin-1-yl]-2-(3-methoxy-1,2-oxazol-5-yl)-3-methylbutan-1-one]",Kd,10 to 50 µM
"COc1cc(C(C(=O)N2C[C@H](O)C[C@H]2c2nccn2Cc2ccccc2Oc2ccccc2)C(C)C)on1 (stereo partly drawn) [Example 69, 1-[(2S,4R)-4-hydroxy-2-[1-[(2-phenoxyphenyl)methyl]imidazol-2-yl]pyrrolidin-1-yl]-2-(3-methoxy-1,2-oxazol-5-yl)-3-methylbutan-1-one]",Kd,10 to 50 µM
"COc1ccc(-c2[nH]c([C@@H]3C[C@@H](O)CN3C(=O)C(c3cc(OC)no3)C(C)C)nc2C(F)(F)F)cc1 (stereo partly drawn) [Example 74, 1-[(2S,4R)-4-hydroxy-2-[5-(4-methoxyphenyl)-4-(trifluoromethyl)-1H-imidazol-2-yl]pyrrolidin-1-yl]-2-(3-methoxy-1,2-oxazol-5-yl)-3-methylbutan-1-one]",Kd,1 to 10 µM
"CNC(=O)c1nc([C@@H]2C[C@@H](O)CN2C(=O)C(c2cc(OC)no2)C(C)C)[nH]c1-c1ccc(OC)cc1 (stereo partly drawn) [Example 75, 2-[(2S,4R)-4-hydroxy-1-[2-(3-methoxy-1,2-oxazol-5-yl)-3-methylbutanoyl]pyrrolidin-2-yl]-5-(4-methoxyphenyl)-N-methyl-1H-imidazole-4-carboxamide]",Kd,1 to 10 µM
"COc1cccc(-c2nc([C@@H]3C[C@@H](O)CN3C(=O)C(c3cc(OC)no3)C(C)C)[nH]c2-c2cccc(OC)c2)c1 (stereo partly drawn) [Example 76, 1-[(2S,4R)-2-[4,5-bis(3-methoxyphenyl)-1H-imidazol-2-yl]-4-hydroxypyrrolidin-1-yl]-2-(3-methoxy-1,2-oxazol-5-yl)-3-methylbutan-1-one]",Kd,1 to 10 µM
"COc1ccc(-c2cnc([C@@H]3C[C@@H](O)CN3C(=O)C(c3cc(OC)no3)C(C)C)[nH]2)cc1 (stereo partly drawn) [Example 78, 1-[(2S,4R)-4-hydroxy-2-[5-(4-methoxyphenyl)-1H-imidazol-2-yl]pyrrolidin-1-yl]-2-(3-methoxy-1,2-oxazol-5-yl)-3-methylbutan-1-one]",Kd,1 to 10 µM
"COc1cc(C(C(=O)N2C[C@H](O)C[C@H]2c2ncc(Cc3ccc(C(F)(F)F)cc3)[nH]2)C(C)C)on1 (stereo partly drawn) [Example 79, 1-[(2S,4R)-4-hydroxy-2-[5-[[4-(trifluoromethyl)phenyl]methyl]-1H-imidazol-2-yl]pyrrolidin-1-yl]-2-(3-methoxy-1,2-oxazol-5-yl)-3-methylbutan-1-one]",Kd,1 to 10 µM
"CNC(=O)c1cccc(-c2cnc([C@@H]3C[C@@H](O)CN3C(=O)C(c3cc(OC)no3)C(C)C)[nH]2)c1 (stereo partly drawn) [Example 80, 3-[2-[(2S,4R)-4-hydroxy-1-[2-(3-methoxy-1,2-oxazol-5-yl)-3-methylbutanoyl]pyrrolidin-2-yl]-1H-imidazol-5-yl]-N-methylbenzamide]",Kd,1 to 10 µM
"CC(=O)N[C@H](C(=O)N1C[C@H](O)C[C@H]1c1ncc(Cc2ccc(Br)cc2)[nH]1)C(C)(C)C [Example 81, N-[(2S)-1-[(2S,4R)-2-[5-[(4-bromophenyl)methyl]-1H-imidazol-2-yl]-4-hydroxypyrrolidin-1-yl]-3,3-dimethyl-1-oxobutan-2-yl]acetamide]",Kd,1 to 10 µM
"CC(=O)N[C@H](C(=O)N1C[C@H](O)C[C@H]1c1ncc(-c2ccccc2C(F)(F)F)[nH]1)C(C)(C)C [Example 84, N-[(2S)-1-[(2S,4R)-4-hydroxy-2-[5-[2-(trifluoromethyl)phenyl]-1H-imidazol-2-yl]pyrrolidin-1-yl]-3,3-dimethyl-1-oxobutan-2-yl]acetamide]",Kd,1 to 10 µM
"CC(=O)N[C@H](C(=O)N1C[C@H](O)C[C@H]1c1ncc(-c2ccc(-c3scnc3C)cc2)[nH]1)C(C)(C)C [Example 89, N-[(2S)-1-[(2S,4R)-4-hydroxy-2-[5-[4-(4-methyl-1,3-thiazol-5-yl)phenyl]-1H-imidazol-2-yl]pyrrolidin-1-yl]-3,3-dimethyl-1-oxobutan-2-yl]acetamide]",Kd,1 to 10 µM
"CC(=O)N[C@H](C(=O)N1C[C@H](O)C[C@H]1c1ncc(Cc2cccc(Br)c2)[nH]1)C(C)(C)C [Example 90, N-[(2S)-1-[(2S,4R)-2-[5-[(3-bromophenyl)methyl]-1H-imidazol-2-yl]-4-hydroxypyrrolidin-1-yl]-3,3-dimethyl-1-oxobutan-2-yl]acetamide]",Kd,1 to 10 µM
"CC(=O)N[C@H](C(=O)N1C[C@H](O)C[C@H]1c1ncc(Cc2cccc(-c3scnc3C)c2)[nH]1)C(C)(C)C [Example 91, N-[(2S)-1-[(2S,4R)-4-hydroxy-2-[5-[[3-(4-methyl-1,3-thiazol-5-yl)phenyl]methyl]-1H-imidazol-2-yl]pyrrolidin-1-yl]-3,3-dimethyl-1-oxobutan-2-yl]acetamide]",Kd,1 to 10 µM
"CC(=O)N[C@H](C(=O)N1C[C@H](O)C[C@H]1c1ncc(Cc2ccc(-c3scnc3C)cc2)[nH]1)C(C)(C)C [Example 93, N-[(1S)-1-[(2S,4R)-4-hydroxy-2-[5-[[4-(4-methyl-1,3-thiazol-5-yl)phenyl]methyl]-1H-imidazol-2-yl]pyrrolidin-1-yl]-3,3-dimethyl-1-oxobutan-2-yl]acetamide]",Kd,1 to 10 µM
"COc1cc(C(C(=O)N2C[C@H](O)C[C@H]2c2nccn2CC(=O)Nc2ccccc2)C(C)C)on1 (stereo partly drawn) [Example 96, 2-[2-[(2S,4R)-4-hydroxy-1-[2-(3-methoxy-1,2-oxazol-5-yl)-3-methylbutanoyl]pyrrolidin-2-yl]imidazol-1-yl]-N-phenylacetamide]",Kd,10 to 50 µM
"CNC(=O)c1ccc(-c2cnc([C@@H]3C[C@@H](O)CN3C(=O)C(c3cc(OC)no3)C(C)C)[nH]2)cc1 (stereo partly drawn) [Example 97, 4-[2-[(2S,4R)-4-hydroxy-1-[2-(3-methoxy-1,2-oxazol-5-yl)-3-methylbutanoyl]pyrrolidin-2-yl]-1H-imidazol-5-yl]-N-methylbenzamide]",Kd,1 to 10 µM
"COc1cc(C(C(=O)N2C[C@H](O)C[C@H]2c2nccn2Cc2ccnc(-c3ccc(C(F)(F)F)cc3)c2)C(C)C)on1 (stereo partly drawn) [Example 102, 1-[(2S,4R)-4-hydroxy-2-[1-[[2-[4-(trifluoromethyl)phenyl]-4-pyridyl]methyl]imidazol-2-yl]pyrrolidin-1-yl]-2-(3-methoxyisoxazol-5-yl)-3-methylbutan-1-one]",Kd,10 to 50 µM
"COc1cc(C(C(=O)N2C[C@H](O)C[C@H]2c2nc(C(=O)N3CC(c4ccccc4)C3)c[nH]2)C(C)C)on1 (stereo partly drawn) [Example 108, 1-[(2S,4R)-4-hydroxy-2-[4-(3-phenylazetidine-1-carbonyl)-1H-imidazol-2-yl]pyrrolidin-1-yl]-2-(3-methoxyisoxazol-5-yl)-3-methylbutan-1-one]",Kd,< 1 µM
"COc1cc(C(C(=O)N2C[C@H](O)C[C@H]2c2nc(C(=O)N3CCC(c4ccccc4)C3)c[nH]2)C(C)C)on1 (stereo partly drawn) [Example 111, 1-[(2S,4R)-4-hydroxy-2-[4-(3-phenylpyrrolidine-1-carbonyl)-1H-imidazol-2-yl]pyrrolidin-1-yl]-2-(3-methoxyisoxazol-5-yl)-3-methylbutan-1-one]",Kd,< 1 µM
"COc1cc(C(C(=O)N2C[C@H](O)C[C@H]2c2ncc[nH]2)C(C)C)on1 (stereo partly drawn) [Example 112, 1-[(2S,4R)-4-hydroxy-2-(1H-imidazol-2-yl)pyrrolidin-1-yl]-2-(3-methoxyisoxazol-5-yl)-3-methylbutan-1-one]",Kd,1 to 10 µM
"COc1cc(C(C(=O)N2C[C@H](O)C[C@H]2c2nccn2Cc2cncc(-c3ccc(F)cc3)c2)C(C)C)on1 (stereo partly drawn) [Example 113, 1-[(2S,4R)-2-[1-[[5-(4-fluorophenyl)-3-pyridyl]methyl]imidazol-2-yl]-4-hydroxypyrrolidin-1-yl]-2-(3-methoxyisoxazol-5-yl)-3-methylbutan-1-one]",Kd,10 to 50 µM
"COc1cc(C(C(=O)N2C[C@H](O)C[C@H]2c2nc(C(=O)N3CCC(c4ccncc4)CC3)c[nH]2)C(C)C)on1 (stereo partly drawn) [Example 139, 1-[(2S,4R)-4-hydroxy-2-[4-[4-(4-pyridyl)piperidine-1-carbonyl]-1H-imidazol-2-yl]pyrrolidin-1-yl]-2-(3-methoxyisoxazol-5-yl)-3-methylbutan-1-one]",Kd,1 to 10 µM
